Measurements taken from the supplement of paper PMC10307832.

Key:
Test in all cases: relative viability (nuclei count vs DMSO), 5 days (fraction); higher = more cells survive
VX-11e + Palbociclib = compound: CC1=CN=C(N=C1C2=CNC(=C2)C(=O)N[C@H](CO)C3=CC(=CC=C3)Cl)NC4=C(C=C(C=C4)F)Cl [VX-11e] + CC(=O)c1c(C)c2cnc(Nc3ccc(N4CCNCC4)cn3)nc2n(C2CCCC2)c1=O [Palbociclib] (partner 0.5 µM)
Outline: (§1)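 Lung cancer cell lines were pin-tool dosed in 1536-well plates on the day after seeding, with either a lone drug or a fixed anchor-drug dose plus five library-drug doses (not always all listed) in √10 steps. Nuclei were counted on 4× images after 5 days. Relative viability is the ratio of treated-well to vehicle-well nuclei counts, with each value a median of duplicate plates.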

VX-11e + Pictilisib = compound: CC1=CN=C(N=C1C2=CNC(=C2)C(=O)N[C@H](CO)C3=CC(=CC=C3)Cl)NC4=C(C=C(C=C4)F)Cl [VX-11e] + CS(=O)(=O)N1CCN(Cc2cc3nc(-c4cccc5[nH]ncc45)nc(N4CCOCC4)c3s2)CC1 [Pictilisib] (partner 1 µM)
Outline: as §1

VX-11e + Phenformin = compound: CC1=CN=C(N=C1C2=CNC(=C2)C(=O)N[C@H](CO)C3=CC(=CC=C3)Cl)NC4=C(C=C(C=C4)F)Cl [VX-11e] + N=C(N)NC(=N)NCCc1ccccc1 [Phenformin] (partner 250 µM)
Outline: as §1

VX-11e + Decitabine = compound: CC1=CN=C(N=C1C2=CNC(=C2)C(=O)N[C@H](CO)C3=CC(=CC=C3)Cl)NC4=C(C=C(C=C4)F)Cl [VX-11e] + Nc1ncn([C@H]2C[C@H](O)[C@@H](CO)O2)c(=O)n1 [Decitabine] (partner 2 µM)
Outline: as §1

Cell Line	relative viability (VX-11e + Palbociclib; first compound 0.04 µM)	relative viability (VX-11e + Palbociclib; first compound 0.1265 µM)	relative viability (VX-11e + Palbociclib; first compound 0.4 µM)	relative viability (VX-11e + Palbociclib; first compound 1.265 µM)	relative viability (VX-11e + Palbociclib; first compound 4 µM)	relative viability (VX-11e + Pictilisib; first compound 0.04 µM)	relative viability (VX-11e + Pictilisib; first compound 0.1265 µM)	relative viability (VX-11e + Pictilisib; first compound 0.4 µM)	relative viability (VX-11e + Pictilisib; first compound 1.265 µM)	relative viability (VX-11e + Pictilisib; first compound 4 µM)	relative viability (VX-11e + Phenformin; first compound 0.04 µM)	relative viability (VX-11e + Phenformin; first compound 0.1265 µM)	relative viability (VX-11e + Phenformin; first compound 0.4 µM)	relative viability (VX-11e + Phenformin; first compound 1.265 µM)	relative viability (VX-11e + Phenformin; first compound 4 µM)	relative viability (VX-11e + Decitabine; first compound 0.04 µM)	relative viability (VX-11e + Decitabine; first compound 0.1265 µM)	relative viability (VX-11e + Decitabine; first compound 0.4 µM)	relative viability (VX-11e + Decitabine; first compound 1.265 µM)	relative viability (VX-11e + Decitabine; first compound 4 µM)
HARA	0.337	0.237	0.196	0.158	0.178	0.0961	0.425	0.322	0.341	0.188	0.453	0.431	0.414	0.399	0.314	0.491	0.417	0.38	0.365	0.467
H3255	0.312	0.305	0.316	0.316	0.327	0.476	0.428	0.482	0.596	0.316	0.359	0.411	0.378	0.362	0.319	0.667	0.603	0.482	0.48	0.332
UMC-11		0.309	0.283	0.267	0.318	0.355	0.943	0.755	0.401	0.609	0.291	0.309	0.28	0.301	0.283		0.495	0.472	0.454	0.594
NCI-H2170	0.354	0.386	0.381	0.339	0.424	0.244	0.265	0.19	0.217	0.237	0.41	0.431	0.21	0.445	0.39	0.477	0.442	0.516	0.541	0.547
EMC-BAC-2	0.563	0.459	0.533	0.553	0.432	0.468	0.488	0.516	0.432	0.337	0.518	0.481	0.633	0.545	0.51	1.02	0.958	0.653	1	0.588
NCI-H3122	0.211	0.164	0.168	0.166	0.135	0.633	0.57	0.255	0.406	0.212	0.408	0.358		0.335	0.254	0.418	0.484	0.335	0.39	0.209
EPLC-272H	0.339	0.293		0.295	0.235	0.301	0.299	0.266	0.213	0.233	0.322	0.22		0.32	0.225	0.331	0.337		0.29	0.178
LU99A	0.334	0.373	0.443	0.326	0.228	0.285	0.283	0.385	0.278	0.155	0.881	0.754	0.28	0.907	0.382	0.872	0.81	0.822	0.727	0.347
